# Data published in US20220389058A1, “PEPTIDES AND COMPOSITIONS FOR USE IN COSMETICS AND MEDICINE” (LIPOTRUE, S.L., priority 2019, published 2022).
# Entries after “also recorded” stand apart in the source; their conditions may differ.
# Legend:
# [1] = tested on: HEKa cells; assay: Gene expression with Ac-SEQ ID NO: 4-NH2, RT-qPCR in HEKa (Example 17); format: cell-based, Human; conditions: 0.01 mg/mL, 24 hours
# Description: (§1) A stock solution of the peptide was prepared in water at 1 mg/mL. Working solution was freshly prepared at the specified concentration from stock solution in the corresponding supplemented medium.
# (§2) RNA (ribonucleic acid) extraction and RT-qPCR (reverse transcription quantitative polymerase chain reaction) were performed. Briefly, HEKa or HDFa cells were seeded in duplicate (n=2) in 6-well plates at a density of 4×10^5 cells/well and maintained at standard culture conditions (106 Medium supplemented with 1% (v/v) LSGS for HDFa cells; Medium Epilife supplemented with 1% (v/v) EDGS and 1% (v/v) penicillin/streptomycin for HEKa cells; 37° C., 95% room humidity, 5% CO2) for 24 hours.
# (§3) Then, cells were treated with peptide Ac-SEQ ID NO: 4-NH2 at the concentration of 0.01 mg/mL for 24 hours. Untreated cells were used as basal or negative control.
# (§4) Cells were finally lysed, and replicates were pooled together for RNA extraction using Qiagen RNeasy Mini kit following manufacturer's instructions. Purified RNAs were used to generate the corresponding cDNAs (complementary deoxyribonucleic acids) by reverse transcription using a commercial kit High capacity cDNA reverse transcription kit (Applied Biosystems) which served as templates for amplification. RT-qPCR was performed with the panel of appropriate TaqMan assay probes for genes shown in table 10 (plus GAPDH—Glyceraldehyde 3-phosphate dehydrogenase—that was used as housekeeping gene) and 2×gene expression Master Mix using StepOne plus Real-Time PCR instrument. Amplification included 40 cycles of: 15 seconds at 95° C. (denaturation) and 1 minute at 60° C. (Annealing and extension) (Arya, M., Shergill, I. S., Williamson, M., Gommersall, L., Arya, N., Patel, H. R. (2005) Basic principles of real-time quantitative PCR. Expert Rev. Mol. Diagn.; 5(2):209-19; and Jozefczuk, J. and Adjaye, J. (2011) Quantitative real-time PCR-based analysis of gene expression. Methods Enzymol. 500; 99-109).
# (§5) The obtained data was analysed using the ΔΔCt method, which provides the target gene expression values as fold changes in the treated sample compared with an untreated basal sample. Both samples were normalized with the relative expression of a housekeeping gene GAPDH (Glyceraldehyde 3-phosphate dehydrogenase).
# [2] = tested on: HDFa cells; assay: Gene expression with Ac-SEQ ID NO: 4-NH2, RT-qPCR in HDFa (Example 17); format: cell-based, Human; conditions: 0.01 mg/mL, 24 hours
# Description: as §1, §2, §3
# as §4, with “(denaturation) and 1 minute at 60° C.” left out
# (§6) The obtained data was analysed using the ΔΔCt method, which provides the target gene expression values as fold changes in the treated sample compared with an untreated basal sample. […]
# [3] = tested on: recombinant mushroom tyrosinase; assay: Tyrosinase activity, L-DOPA/dopachrome absorbance (Example 11); format: biochemical; conditions: 0.05-2.5 mg/mL (Ac-SEQ ID NO: 4-NH2: 0.005-2.5 mg/mL); 30 minutes preincubation, L-DOPA, 2 hours, absorbance 450 nm; vs non-treated control (100%)
# Description: Briefly, different concentrations of Ac-SEQ ID NO: 1-NH2 (0.05, 0.25, 0.5 and 2.5 mg/mL), Ac-SEQ ID NO: 2-NH2 (0.05, 0.25, 0.5 and 2.5 mg/mL), Ac-SEQ ID NO: 3-NH2 (0.05, 0.25, 0.5 and 2.5 mg/mL) and Ac-SEQ ID NO: 4-NH2 (0.005, 0.025, 0.05, 0.25, 0.5 and 2.5 mg/mL) and the positive control kojic acid (400 and 800 μM) were incubated with recombinant mushroom tyrosinase for 30 minutes before the addition of L-DOPA (L-3,4 dihidroxiphenilalanine, 2.5 mg/mL in PBS). After 2 hours' reaction at room temperature, the absorbance at 450 nm of each well was determined using the microplate reader Multiskan FC (Thermo Fisher Scientific, Mass., USA), which is directly proportional to the amount of dopachrome in the reaction mixture.
# [4] = tested on: HDFa cells; assay: Expression of genes related with collagen production and extracellular matrix, RT-qPCR in HDFa (Example 10); format: cell-based, Human; conditions: 0.01 mg/mL, 24 hours
# Description: as §1
# (§7) RNA (ribonucleic acid) extraction and RT-qPCR (reverse transcription quantitative polymerase chain reaction) were performed. Briefly, HDFa cells were seeded in duplicate (n=2) in 6-well plates at a density of 4×10^5 cells/well and maintained at standard culture conditions (106 Medium supplemented with 1% (v/v) LSGS; 37° C., 95% room humidity, 5% CO2) for 24 hours. Then, cells were treated with peptide Ac-SEQ ID NO: 1-NH2 at the concentration of 0.01 mg/mL for 24 and 48 hours. Untreated cells were used as basal or negative control.
# as §4, with “table 5” for “table 10”
# as §5
# [5] = tested on: IL33; assay: IL33 expression modulation by RT-qPCR in HEKa cells (Example 7); format: cell-based, Human; conditions: 0.01 mg/mL, 24 hours
# Description: as §1
# as §7, with “HDFa and HEKa” for “HDFa”, “LSGS for HDFa cells; Medium Epilife supplemented with 1% (v/v) EDGS and 1% (v/v) penicillin/streptomycin for HEKa cells;” for “LSGS;”, “1-NH2, Ac-SEQ ID NO: 2-NH2 or Ac-SEQ ID NO: 3-NH2” for “1-NH2”, “24” for “24 and 48”
# as §4, with “the” for “the panel of”, “IL33” for “genes shown in table 10”, “Amplification included 40 cycles of: 15 seconds at 95° C. (denaturation) and 1 minute at 60° C.” left out
# as §6
# [6] = tested on: HEKa cells; assay: Expression of genes related to epidermal cell cohesion, RT-qPCR in HEKa (Example 9); format: cell-based, Human; conditions: 0.01 mg/mL, 24 hours
# Description: as §1
# as §2, with “HEKa” for “HEKa or HDFa”, “(Medium” for “(106 Medium supplemented with 1% (v/v) LSGS for HDFa cells; Medium”, “penicillin/streptomycin;” for “penicillin/streptomycin for HEKa cells;”
# Then, cells were treated with peptide Ac-SEQ ID NO: 1-NH2, Ac-SEQ ID NO: 2-NH2 or Ac-SEQ ID NO: 3-NH2 at the concentration of 0.01 mg/mL for 24 hours. Untreated cells were used as basal or negative control.
# as §4, with “table 1” for “table 10”
# as §5
Substance,tyrosinase activity [3],FBN1 Fold change between treated cells and basal control [4],MMP1 Fold change between treated cells and basal control [4],"IL33 gene expression, fold change in treated cells with regard to basal control [5]",CLDN4 Fold change between treated cells and basal control [6],OCLN Fold change between treated cells and basal control [6],PCDH1 Fold change between treated cells and basal control [6],PKP2 Fold change between treated cells and basal control [6],TJP1 Fold change between treated cells and basal control [6],also measured
"Ac-Arg-Arg-Gln-Met-Glu-Glu-NH2 (Ac-RRQMEE-NH2) [Ac-SEQ ID NO: 4-NH2, a peptide not of the present invention, very similar comparison peptide]",did not inhibit tyrosinase activity in any of the concentrations tested; also recorded: from concentration 0.05 mg/mL and onwards it increased tyrosinase activity in a dose-dependent manner,–,–,–,–,–,–,–,–,CDSN Fold change between treated cells and basal control [1]: −1.04 Fold change; IL33 Fold change between treated cells and basal control [1]: −1.01 Fold change; OCLN Fold change between treated cells and basal control [1]: −1.08 Fold change; SIGIRR Fold change between treated cells and basal control [1]: −1.49 Fold change; SLC2A1 Fold change between treated cells and basal control [1]: −1.07 Fold change; TJP1 Fold change between treated cells and basal control [1]: −1.04 Fold change; COL3A1 Fold change between treated cells and basal control [2]: −1.28 Fold change; IL1RL1 Fold change between treated cells and basal control [2]: −1.12 Fold change; TIMP2 Fold change between treated cells and basal control [2]: −1.26 Fold change
Ac-Arg-Glu-Gln-Met-Arg-Arg-NH2 (Ac-REQMRR-NH2) [Ac-SEQ ID NO: 3-NH2],showed a dose-dependent inhibition of tyrosinase activity at concentrations of 0.25 mg/mL and higher,1.29 Fold change,−1.46 Fold change,−3.93 fold change,1.90 Fold change,1.99 Fold change,2.48 Fold change,1.86 Fold change,1.43 Fold change,MMP3 Fold change between treated cells and basal control [4]: −1.30 Fold change; CLDN1 Fold change between treated cells and basal control [6]: 1.5 Fold change; DSC1 Fold change between treated cells and basal control [6]: 1.41 Fold change; DSC2 Fold change between treated cells and basal control [6]: 1.43 Fold change; DSP Fold change between treated cells and basal control [6]: 1.28 Fold change; JUP Fold change between treated cells and basal control [6]: 1.23 Fold change; PPL Fold change between treated cells and basal control [6]: 1.52 Fold change
Ac-Met-Arg-Arg-Glu-Gln-Arg-NH2 (Ac-MRREQR-NH2) [Ac-SEQ ID NO: 2-NH2],showed inhibition of tyrosinase activity in a dose-dependent manner from 0.05 mg/mL and onwards,1.20 Fold change,−1.21 Fold change,−3.77 fold change,1.51 Fold change,1.58 Fold change,2.14 Fold change,1.42 Fold change,1.34 Fold change,–
